In ChEMBL document CHEMBL3045245, “Synthesis and antitumor activities of certain novel 2-amino-9-(4-halostyryl)-4H-pyrano[3,2-h]quinoline derivatives” (Med Chem Res, 2012):
Values after ≈ are worked out from the molar mass of the structure shown.

Test system: not listed separately
Assay: Cytotoxicity against Homo sapiens (human) HCT cells assessed as cell viability at 6.25 ug/ml after 48 hr by MTT assay
Format: functional
Conditions: read-out: Activity

Structure (SMILES) | viability at 6.25 µg/mL [%]
N#CC1=C(N)Oc2c(ccc3ccc(/C=C/c4ccc(Br)cc4)nc23)C1c1ccc(Cl)cc1 (configuration not stated) | 74.9
N#CC1=C(N)Oc2c(ccc3ccc(/C=C/c4ccc(Br)cc4)nc23)C1c1ccc(Br)cc1 (configuration not stated) | 80.5

Test system: not listed separately
Assay: Cytotoxicity against Homo sapiens (human) HCT cells assessed as cell viability at 25 ug/ml after 48 hr by MTT assay
Format: functional
Conditions: read-out: Activity

Structure (SMILES) | viability at 25 µg/mL [%]
N#CC1=C(N)Oc2c(ccc3ccc(/C=C/c4ccc(Br)cc4)nc23)C1c1ccc(Cl)cc1 (configuration not stated) | 30.3
N#CC1=C(N)Oc2c(ccc3ccc(/C=C/c4ccc(Br)cc4)nc23)C1c1ccc(Br)cc1 (configuration not stated) | 33.5

Test system: not listed separately
Assay: Cytotoxicity against Homo sapiens (human) HCT cells assessed as cell viability at 50 ug/ml after 48 hr by MTT assay
Format: functional
Conditions: read-out: Activity

Structure (SMILES) | viability at 50 µg/mL [%]
N#CC1=C(N)Oc2c(ccc3ccc(/C=C/c4ccc(Br)cc4)nc23)C1c1ccc(Cl)cc1 (configuration not stated) | 22.8
N#CC1=C(N)Oc2c(ccc3ccc(/C=C/c4ccc(Br)cc4)nc23)C1c1ccc(Br)cc1 (configuration not stated) | 24

Test system: HepG2
Assay: Cytotoxicity against Homo sapiens (human) HepG2 cells assessed as cell viability at 12.5 ug/ml after 48 hr by MTT assay
Format: functional
Conditions: HepG2, 48 h, read-out: Activity

Structure (SMILES) | viability at 12.5 µg/mL [%]
N#CC1=C(N)Oc2c(ccc3ccc(/C=C/c4ccc(Br)cc4)nc23)C1c1ccc(Cl)cc1 (configuration not stated) | 39.4
N#CC1=C(N)Oc2c(ccc3ccc(/C=C/c4ccc(Br)cc4)nc23)C1c1ccc(Br)cc1 (configuration not stated) | 34.1

Test system: HepG2
Assay: Cytotoxicity against Homo sapiens (human) HepG2 cells assessed as cell viability at 50 ug/ml after 48 hr by MTT assay
Format: functional
Conditions: HepG2, 48 h, read-out: Activity

Structure (SMILES) | viability at 50 µg/mL [%]
N#CC1=C(N)Oc2c(ccc3ccc(/C=C/c4ccc(Br)cc4)nc23)C1c1ccc(Cl)cc1 (configuration not stated) | 25.2
N#CC1=C(N)Oc2c(ccc3ccc(/C=C/c4ccc(Br)cc4)nc23)C1c1ccc(Br)cc1 (configuration not stated) | 16

Test system: MCF7
Assay: Cytotoxicity against Homo sapiens (human) MCF7 cells assessed as cell viability at 50 ug/ml after 48 hr by MTT assay
Format: functional
Conditions: MCF7, 48 h, read-out: Activity

Structure (SMILES) | viability at 50 µg/mL [%]
N#CC1=C(N)Oc2c(ccc3ccc(/C=C/c4ccc(Br)cc4)nc23)C1c1ccc(Cl)cc1 (configuration not stated) | 29.4
N#CC1=C(N)Oc2c(ccc3ccc(/C=C/c4ccc(Br)cc4)nc23)C1c1ccc(Br)cc1 (configuration not stated) | 22.4

Test system: HepG2
Assay: Cytotoxicity against Homo sapiens (human) HepG2 cells assessed as cell viability at 25 ug/ml after 48 hr by MTT assay
Format: functional
Conditions: HepG2, 48 h, read-out: Activity

Structure (SMILES) | viability at 25 µg/mL [%]
N#CC1=C(N)Oc2c(ccc3ccc(/C=C/c4ccc(Br)cc4)nc23)C1c1ccc(Cl)cc1 (configuration not stated) | 29
N#CC1=C(N)Oc2c(ccc3ccc(/C=C/c4ccc(Br)cc4)nc23)C1c1ccc(Br)cc1 (configuration not stated) | 25.7

Test system: not listed separately
Assay: Cytotoxicity against Homo sapiens (human) HCT cells after 48 hr by MTT assay
Format: functional, cell-based
Conditions: not given

Structure (SMILES) | IC50 [µg/mL]
N#CC1=C(N)Oc2c(ccc3ccc(/C=C/c4ccc(Br)cc4)nc23)C1c1ccc(Cl)cc1 (configuration not stated) | 10.2 (≈ 19.8 µM)
N#CC1=C(N)Oc2c(ccc3ccc(/C=C/c4ccc(Br)cc4)nc23)C1c1ccc(Br)cc1 (configuration not stated) | 12.7 (≈ 22.7 µM)

Test system: MCF7
Assay: Cytotoxicity against Homo sapiens (human) MCF7 cells assessed as cell viability at 6.25 ug/ml after 48 hr by MTT assay
Format: functional
Conditions: MCF7, 48 h, read-out: Activity

Structure (SMILES) | viability at 6.25 µg/mL [%]
N#CC1=C(N)Oc2c(ccc3ccc(/C=C/c4ccc(Br)cc4)nc23)C1c1ccc(Cl)cc1 (configuration not stated) | 64.7
N#CC1=C(N)Oc2c(ccc3ccc(/C=C/c4ccc(Br)cc4)nc23)C1c1ccc(Br)cc1 (configuration not stated) | 40.6

Test system: MCF7
Assay: Cytotoxicity against Homo sapiens (human) MCF7 cells assessed as cell viability at 12.5 ug/ml after 48 hr by MTT assay
Format: functional
Conditions: MCF7, 48 h, read-out: Activity

Structure (SMILES) | viability at 12.5 µg/mL [%]
N#CC1=C(N)Oc2c(ccc3ccc(/C=C/c4ccc(Br)cc4)nc23)C1c1ccc(Cl)cc1 (configuration not stated) | 53.1
N#CC1=C(N)Oc2c(ccc3ccc(/C=C/c4ccc(Br)cc4)nc23)C1c1ccc(Br)cc1 (configuration not stated) | 31.7

Test system: not listed separately
Assay: Cytotoxicity against Homo sapiens (human) HCT cells assessed as cell viability at 1.56 ug/ml after 48 hr by MTT assay
Format: functional
Conditions: read-out: Activity

Structure (SMILES) | viability at 1.56 µg/mL [%]
N#CC1=C(N)Oc2c(ccc3ccc(/C=C/c4ccc(Br)cc4)nc23)C1c1ccc(Cl)cc1 (configuration not stated) | 98
N#CC1=C(N)Oc2c(ccc3ccc(/C=C/c4ccc(Br)cc4)nc23)C1c1ccc(Br)cc1 (configuration not stated) | 95.7

Test system: not listed separately
Assay: Cytotoxicity against Homo sapiens (human) HCT cells assessed as cell viability at 3.125 ug/ml after 48 hr by MTT assay
Format: functional
Conditions: read-out: Activity

Structure (SMILES) | viability at 3.125 µg/mL [%]
N#CC1=C(N)Oc2c(ccc3ccc(/C=C/c4ccc(Br)cc4)nc23)C1c1ccc(Cl)cc1 (configuration not stated) | 89.8
N#CC1=C(N)Oc2c(ccc3ccc(/C=C/c4ccc(Br)cc4)nc23)C1c1ccc(Br)cc1 (configuration not stated) | 90.7

Test system: MCF7
Assay: Cytotoxicity against Homo sapiens (human) MCF7 cells assessed as cell viability at 1.56 ug/ml after 48 hr by MTT assay
Format: functional
Conditions: MCF7, 48 h, read-out: Activity

Structure (SMILES) | viability at 1.56 µg/mL [%]
N#CC1=C(N)Oc2c(ccc3ccc(/C=C/c4ccc(Br)cc4)nc23)C1c1ccc(Cl)cc1 (configuration not stated) | 80.6
N#CC1=C(N)Oc2c(ccc3ccc(/C=C/c4ccc(Br)cc4)nc23)C1c1ccc(Br)cc1 (configuration not stated) | 61.1

Test system: MCF7
Assay: Cytotoxicity against Homo sapiens (human) MCF7 cells assessed as cell viability at 25 ug/ml after 48 hr by MTT assay
Format: functional
Conditions: MCF7, 48 h, read-out: Activity

Structure (SMILES) | viability at 25 µg/mL [%]
N#CC1=C(N)Oc2c(ccc3ccc(/C=C/c4ccc(Br)cc4)nc23)C1c1ccc(Cl)cc1 (configuration not stated) | 41.2
N#CC1=C(N)Oc2c(ccc3ccc(/C=C/c4ccc(Br)cc4)nc23)C1c1ccc(Br)cc1 (configuration not stated) | 27.4

Test system: not listed separately
Assay: Cytotoxicity against Homo sapiens (human) HCT cells assessed as cell viability at 12.5 ug/ml after 48 hr by MTT assay
Format: functional
Conditions: read-out: Activity

Structure (SMILES) | viability at 12.5 µg/mL [%]
N#CC1=C(N)Oc2c(ccc3ccc(/C=C/c4ccc(Br)cc4)nc23)C1c1ccc(Cl)cc1 (configuration not stated) | 41.9
N#CC1=C(N)Oc2c(ccc3ccc(/C=C/c4ccc(Br)cc4)nc23)C1c1ccc(Br)cc1 (configuration not stated) | 51

Test system: HepG2
Assay: Cytotoxicity against Homo sapiens (human) HepG2 cells assessed as cell viability at 3.125 ug/ml after 48 hr by MTT assay
Format: functional
Conditions: HepG2, 48 h, read-out: Activity

Structure (SMILES) | viability at 3.125 µg/mL [%]
N#CC1=C(N)Oc2c(ccc3ccc(/C=C/c4ccc(Br)cc4)nc23)C1c1ccc(Cl)cc1 (configuration not stated) | 64.4
N#CC1=C(N)Oc2c(ccc3ccc(/C=C/c4ccc(Br)cc4)nc23)C1c1ccc(Br)cc1 (configuration not stated) | 54.8

Test system: MCF7
Assay: Cytotoxicity against Homo sapiens (human) MCF7 cells assessed as cell viability at 3.125 ug/ml after 48 hr by MTT assay
Format: functional
Conditions: MCF7, 48 h, read-out: Activity

Structure (SMILES) | viability at 3.125 µg/mL [%]
N#CC1=C(N)Oc2c(ccc3ccc(/C=C/c4ccc(Br)cc4)nc23)C1c1ccc(Cl)cc1 (configuration not stated) | 73
N#CC1=C(N)Oc2c(ccc3ccc(/C=C/c4ccc(Br)cc4)nc23)C1c1ccc(Br)cc1 (configuration not stated) | 53.1

Test system: HepG2
Assay: Cytotoxicity against Homo sapiens (human) HepG2 cells assessed as cell viability at 1.56 ug/ml after 48 hr by MTT assay
Format: functional
Conditions: HepG2, 48 h, read-out: Activity

Structure (SMILES) | viability at 1.56 µg/mL [%]
N#CC1=C(N)Oc2c(ccc3ccc(/C=C/c4ccc(Br)cc4)nc23)C1c1ccc(Cl)cc1 (configuration not stated) | 77.9
N#CC1=C(N)Oc2c(ccc3ccc(/C=C/c4ccc(Br)cc4)nc23)C1c1ccc(Br)cc1 (configuration not stated) | 74.3

Test system: HepG2
Assay: Cytotoxicity against Homo sapiens (human) HepG2 cells assessed as cell viability at 6.25 ug/ml after 48 hr by MTT assay
Format: functional
Conditions: HepG2, 48 h, read-out: Activity

Structure (SMILES) | viability at 6.25 µg/mL [%]
N#CC1=C(N)Oc2c(ccc3ccc(/C=C/c4ccc(Br)cc4)nc23)C1c1ccc(Cl)cc1 (configuration not stated) | 53.1
N#CC1=C(N)Oc2c(ccc3ccc(/C=C/c4ccc(Br)cc4)nc23)C1c1ccc(Br)cc1 (configuration not stated) | 41.4

Test system: MCF7
Assay: Cytotoxicity against Homo sapiens (human) MCF7 cells after 48 hr by MTT assay
Format: functional, cell-based
Conditions: MCF7, 48 h

Structure (SMILES) | IC50 [µg/mL]
N#CC1=C(N)Oc2c(ccc3ccc(/C=C/c4ccc(Br)cc4)nc23)C1c1ccc(Cl)cc1 (configuration not stated) | 15.9 (≈ 30.9 µM)
N#CC1=C(N)Oc2c(ccc3ccc(/C=C/c4ccc(Br)cc4)nc23)C1c1ccc(Br)cc1 (configuration not stated) | 3.9 (≈ 6.97 µM)

Test system: HepG2
Assay: Cytotoxicity against Homo sapiens (human) HepG2 cells after 48 hr by MTT assay
Format: functional, cell-based
Conditions: HepG2, 48 h

Structure (SMILES) | IC50 [µg/mL]
N#CC1=C(N)Oc2c(ccc3ccc(/C=C/c4ccc(Br)cc4)nc23)C1c1ccc(Cl)cc1 (configuration not stated) | 7.5 (≈ 14.6 µM)
N#CC1=C(N)Oc2c(ccc3ccc(/C=C/c4ccc(Br)cc4)nc23)C1c1ccc(Br)cc1 (configuration not stated) | 8.7 (≈ 15.6 µM)
